Tests used:
[1] = Monitoring H2S2 formation from the TTS-TAGDD hybrid compound 3 (SSP4, 12 h); settings: 25 μM compound only, over 12 hours
Procedure: Monitoring H2S2 formation from the TTS-TAGDD hybrid compound 3: TTS and 3 were prepared as 1 mM solutions in DMSO. L-cysteine and Na2S2 were prepared at 4 mM and 1 mM in MilliQ H2O, respectively. SSP4 was dissolved in DMSO to obtain a 200 μM stock solution. CTAB was dissolved in ethanol to yield a 2 mM stock solution. 50 mM PBS buffer (pH 7.4) was added to individual wells of a black polystyrene, flat-bottomed clear 96-well plate, followed by TTS (25 μM) or 3 (25 μM) then cysteine (100 μM) or Na2S2 (25 μM). Samples were mixed by pipetting up and down and incubated in the dark at room temperature (rt) for 30 min. Next, CTAB (50 μM) was added to all wells followed by SSP4 (5 μM), and samples were mixed by pipetting up and down. Samples were then incubated in the dark at room temperature for another 30 min before being measured on a Molecular Devices SpectraMax iD3 Multi-Mode Microplate Reader (fluorescence mode; kinetics measurement type; emission 535 nm; excitation 485 nm; integration time […], low PMT sensitivity, attenuation 1, read height 1.00 mm; total run time: 12 hours; 25 cycles; interval: 0.5 hours). Data was graphed as a time dependent fluorescence response, with F0 as the SSP4 only condition. The fluorescence of Na2S2 over time was not represented in the line graph presented due to the compound's known instability. Data obtained from the 12 h time point including from Na2S2 was also represented in a bar graph for greater clarity. Results were expressed as mean±SEM (n=3).

HeLa cells = assay: Live cell imaging of H2S2 formation with SSP4; assay type: cell-based; settings: 30 min
Procedure: HeLa cells were seeded at ~7000 cells/well in a 96-well clear flat-bottomed BioLite plate (ThermoFisher Scientific, #130188) in DMEM/F12 (1:1) (Gibco, Invitrogen, #11330-032) medium supplemented with 10% fetal bovine serum (FBS) at 37° C., 5% CO2 overnight.
Preparation before cell treatment: Na2S and Na2S2 stocks were prepared at 10 mM in sterile 1×PBS. TTS and TT were prepared at 10 mM concentrations in DMSO. They were then diluted to 50 μM concentrations in serum-free Fluorobrite DMEM in individual Eppendorf tubes (0.5% DMSO). Na2S (final concentration=100 μM) was added to the Eppendorf tube containing Fluorobrite DMEM and TTS or TT immediately before being added to the cells. Compounds were mixed by pipetting up and down prior to cell addition.
Cell treatment: Culturing media was aspirated from all wells, and cells were washed twice with 1×PBS. Compounds were added to cells (200 μL/well) and incubated for 30 min at 37° C., 5% CO2. While cells were incubating, SSP4 treatment was prepared by first adding 5 mM CTAB in ethanol to Fluorobrite DMEM followed by 6.125 mM SSP4 in DMSO to final concentrations of 100 μM and 5 μM, respectively, in a tube. The final volume was 5 mL (0.08% DMSO). Compounds were mixed by pipetting up and down prior to cell addition. After incubation, media was aspirated, and cells were washed twice with 1×PBS. SSP4 treatment was added to all wells (100 μL/well), and cells were incubated for 30 min at 37° C., 5% CO2 for 30 min. Media was then aspirated, and cells were washed three times with 1×PBS. Fluorobrite DMEM was added to all wells before imaging on the Keyence All-in-One Fluorescence Microscope (BZ-X810) (excitation: 470/40 nm; emission: 525/50 nm).
As shown in FIGS. 4(A)-(D), HeLa cells were treated with TTS, TTS+H2S, or TT for 30 min before the fluorescent sensor SSP4 was applied to the cells to monitor the formation of H2S2. […] Na2S2 was used as the positive control in this study (FIG. 4D). Other control studies including TT+H2S, H2S only, and SSP4 only were also performed. […] FIG. 4H is a graph of fluorescence intensities of SSP4 staining. Data are mean values ±SEM calculated using ImageJ. (n=9, where three different images were obtained from each of three samples and quantified).

Q: Which SSP4 fluorescence [1] does the source give for COC(=O)c1ccc(=S=O)sc1 [TTS, 2H-thiopyran-2-thione sulfine] here?
A: The SSP4 fluorescence was “did not give any notable fluorescence”.

Q: What about the “SSP4 fluorescence in HeLa cells” value (HeLa cells; compound 50 μM + Na2S 100 μM) of the same compound?
A: The value was “Significant green fluorescence”.

Q: And the “SSP4 fluorescence in HeLa cells” value (HeLa cells; compound only)?
A: The value was “did not show obvious fluorescence”.

Source: patent publication US20260265055A1, “Sulfine-Based Compounds for Generating Hydrogen Persulfide” (Brown University, priority 2023, published 2026)
